Measured values reported in publication PMC10035947, “Development of novel anilinoquinazoline-based carboxylic acids as non-classical carbonic anhydrase IX and XII inhibitors” (Journal of Enzyme Inhibition and Medicinal Chemistry, 2023).
Read-outs that look alike come from different tables or passages of the source.

Key:
M14 = test: NCI SRB assay; format: cell-based, human
SK-MEL-5 = test: NCI SRB assay; format: cell-based, human
OVCAR-8 = test: NCI SRB assay; format: cell-based, human; conditions: for CC50: read-out: LC50 (the source's name)
A498 = test: NCI SRB assay; format: cell-based, human; conditions: for CC50: read-out: LC50 (the source's name)
CAKI-1 = test: NCI SRB assay; format: cell-based, human; conditions: for CC50: read-out: LC50 (the source's name)
SN12C = test: NCI SRB assay; format: cell-based, human; conditions: for CC50: read-out: LC50 (the source's name)
TK-10 = test: NCI SRB assay; format: cell-based, human; conditions: for CC50: read-out: LC50 (the source's name)
PC-3 = test: NCI SRB assay; format: cell-based, human; conditions: for CC50: read-out: LC50 (the source's name)
DU-145 = test: NCI SRB assay; format: cell-based, human; conditions: for CC50: read-out: LC50 (the source's name)
MCF7 = test: NCI SRB assay; format: cell-based, human; conditions: for CC50: read-out: LC50 (the source's name)
MDA-MB-468 = test: NCI SRB assay; format: cell-based, human; conditions: for CC50: read-out: LC50 (the source's name)
[1] = tested on: 59 human cancer cell lines representing nine tumour subpanels; test: NCI SRB assay, panel and subpanel summaries; conditions: for GI50: Homo sapiens; for Selectivity index: full panel MG-MID / subpanel MG-MID
[2] = Homo sapiens, SN12C, SN 12 C, 5-dose
[3] = Homo sapiens, MCF7, MCF7, 5-dose
[4] = Homo sapiens, MDA-MB-468, MDA-MB-468, 5-dose

Compound: Cc1ccc(-c2nc(Nc3ccccc3C(=O)O)c3ccccc3n2)cc1 [6b, 2-((2-(p-Tolyl)quinazolin-4-yl)amino)benzoic acid]
- GI50 (M14; Homo sapiens, M14, 5-dose): 15.5 µM
- GI% (M14; M14, 10 μM): 87%
- Growth Percent (M14; M14, 1.00E-5 Molar): 12.58%
- TGI (M14; M14, 5-dose): 77.4 µM
- TGI (M14; M14, 5-dose, listed as D - 835857): 7.74E-5 Molar
- CC50 (M14; M14, 5-dose, read-out: LC50 (the source's name)): < 100 µM
- GI50 (SK-MEL-5; Homo sapiens, SK-MEL-5, SK-MEL-5, 5-dose): 5.32 µM
- CC50 (SK-MEL-5; Homo sapiens, SK-MEL-5, 5-dose, read-out: LC50 (the source's name)): 57.5 µM
- GI% (SK-MEL-5; SK-MEL-5, 10 μM): 124%
- Growth Percent (SK-MEL-5; SK-MEL-5, 1.00E-5 Molar): -24.79%
- GI50 (SK-MEL-5; SK-MEL-5, 5-dose): 5.3 µM
- TGI (SK-MEL-5; SK-MEL-5, 5-dose): 20.3 µM
- TGI (SK-MEL-5; SK-MEL-5, 5-dose, listed as D - 835857): 2.03E-5 Molar
- CC50 (OVCAR-8; Homo sapiens, OVCAR-8, OVCAR-8, 5-dose): > 100 µM
- GI50 (OVCAR-8; Homo sapiens, OVCAR-8, 5-dose): 18.2 µM
- GI% (OVCAR-8; OVCAR-8, 10 μM): 69%
- Growth Percent (OVCAR-8; OVCAR-8, 1.00E-5 Molar): 30.51%
- TGI (OVCAR-8; OVCAR-8, 5-dose): <100 µM
- TGI (OVCAR-8; OVCAR-8, 5-dose, listed as D - 835857): > 1.00E-4 Molar
- CC50 (OVCAR-8; OVCAR-8, 5-dose): < 100 µM
- GI% (A498; A498, 10 μM): 78%
- Growth Percent (A498; A498, 1.00E-5 Molar): 21.64%
- TGI (A498; A498, 5-dose): 58.1 µM
- TGI (A498; A498, 5-dose, listed as D - 835857): 5.81E-5 Molar
- CC50 (A498; A498, 5-dose): < 100 µM
- CC50 (A498; Homo sapiens, A498, A498, 5-dose): > 100 µM
- GI50 (A498; Homo sapiens, A498, 5-dose): 19.9 µM
- GI% (CAKI-1; CAKI-1, 10 μM): 79%
- Growth Percent (CAKI-1; CAKI-1, 1.00E-5 Molar): 21.08%
- TGI (CAKI-1; CAKI-1, 5-dose): <100 µM
- TGI (CAKI-1; CAKI-1, 5-dose, listed as D - 835857): > 1.00E-4 Molar
- CC50 (CAKI-1; CAKI-1, 5-dose): < 100 µM
- CC50 (CAKI-1; Homo sapiens, CAKI-1, CAKI-1, 5-dose): > 100 µM
- GI50 (CAKI-1; Homo sapiens, CAKI-1, 5-dose): 13.8 µM
- CC50 (SN12C; Homo sapiens, SN12C, 5-dose): > 100 µM
- CC50 (SN12C; [2]): < 100 µM
- GI50 (SN12C; [2]): 11 µM
- GI% (SN12C; SN12C, 10 μM): 78%
- Growth Percent (SN12C; SN12C, 1.00E-5 Molar): 22.24%
- TGI (SN12C; SN 12 C, 5-dose): 60.4 µM
- TGI (SN12C; SN12C, 5-dose): 6.04E-5 Molar
- CC50 (TK-10; Homo sapiens, TK-10, TK-10, 5-dose): > 100 µM
- GI50 (TK-10; Homo sapiens, TK-10, 5-dose): 29.3 µM
- GI% (TK-10; TK-10, 10 μM): 41%
- Growth Percent (TK-10; TK-10, 1.00E-5 Molar): 58.93%
- TGI (TK-10; TK-10, 5-dose): <100 µM
- TGI (TK-10; TK-10, 5-dose, listed as D - 835857): > 1.00E-4 Molar
- CC50 (TK-10; TK-10, 5-dose): < 100 µM
- CC50 (PC-3; Homo sapiens, PC-3, PC-3, 5-dose): > 100 µM
- GI50 (PC-3; Homo sapiens, PC-3, 5-dose): 12.7 µM
- GI% (PC-3; PC-3, 10 μM): 84%
- Growth Percent (PC-3; PC-3, 1.00E-5 Molar): 15.75%
- TGI (PC-3; PC-3, 5-dose): <100 µM
- TGI (PC-3; PC-3, 5-dose, listed as D - 835857): > 1.00E-4 Molar
- CC50 (PC-3; PC-3, 5-dose): < 100 µM
- GI% (DU-145; DU-145, 10 μM): 81%
- Growth Percent (DU-145; DU-145, 1.00E-5 Molar): 19.37%
- TGI (DU-145; DU-145, 5-dose): <100 µM
- TGI (DU-145; DU-145, 5-dose, listed as D - 835857): > 1.00E-4 Molar
- CC50 (DU-145; DU-145, 5-dose): < 100 µM
- CC50 (DU-145; Homo sapiens, DU-145, DU-145, 5-dose): > 100 µM
- GI50 (DU-145; Homo sapiens, DU-145, 5-dose): 17.7 µM
- GI50 (MCF7; [3]): 9.41 µM
- CC50 (MCF7; [3]): > 100 µM
- GI% (MCF7; MCF7, 10 μM): 92%
- Growth Percent (MCF7; MCF7, 1.00E-5 Molar): 7.70%
- GI50 (MCF7; MCF7, 5-dose): 9.4 µM
- TGI (MCF7; MCF7, 5-dose): 89.9 µM
- TGI (MCF7; MCF7, 5-dose, listed as D - 835857): 8.99E-5 Molar
- CC50 (MCF7; MCF7, 5-dose): < 100 µM
- GI50 (MDA-MB-468; [4]): 8.29 µM
- CC50 (MDA-MB-468; [4]): > 100 µM
- GI% (MDA-MB-468; MDA-MB-468, 10 μM): 126%
- Growth Percent (MDA-MB-468; MDA-MB-468, 1.00E-5 Molar): -26.88%
- GI50 (MDA-MB-468; MDA-MB-468, 5-dose): 8.3 µM
- TGI (MDA-MB-468; MDA-MB-468, 5-dose, listed as D - 835857): 4.23E-5 Molar
- CC50 (MDA-MB-468; MDA-MB-468, 5-dose): < 100 µM
- Mean GI % ([1]; 10 μM, all cell lines): 84%
- Mean Growth Percent ([1]; 1.00E-5 Molar, all cell lines): 15.81%
- GI50 ([1]; read-out: Full panel MG-MID (GI50), full panel): 12 µM
- GI50 ([1]; read-out: MG-MID (median GI50), Breast cancer subpanel): 11 µM
- GI50 ([1]; read-out: MG-MID (median GI50), CNS cancer subpanel): 8.04 µM
- GI50 ([1]; read-out: MG-MID (median GI50), Colon cancer subpanel): 13.7 µM
- GI50 ([1]; read-out: MG-MID (median GI50), Leukaemia subpanel): 8.68 µM
- GI50 ([1]; read-out: MG-MID (median GI50), Melanoma subpanel): 11.7 µM
- GI50 ([1]; read-out: MG-MID (median GI50), Non-small cell lung cancer subpanel): 9.24 µM
- GI50 ([1]; read-out: MG-MID (median GI50), Ovarian cancer subpanel): 15.7 µM
- GI50 ([1]; read-out: MG-MID (median GI50), Prostate cancer subpanel): 15.2 µM
- GI50 ([1]; read-out: MG-MID (median GI50), Renal cancer subpanel): 14.7 µM
- Selectivity index ([1]; Breast cancer): 1.09
- Selectivity index ([1]; CNS cancer): 1.49
- Selectivity index ([1]; Colon cancer): 0.87
- Selectivity index ([1]; Leukaemia): 1.38
- Selectivity index ([1]; Melanoma): 1.02
- Selectivity index ([1]; Non-small cell lung cancer): 1.29
- Selectivity index ([1]; Ovarian cancer): 0.76
- Selectivity index ([1]; Prostate cancer): 0.78
- Selectivity index ([1]; Renal cancer): 0.81
